Data set [1] concerns BACE1. Also noted: method as in PMID 24291393. Conditions: cited from earlier work.
Details of data set [2]: method as in doi:10.1016/j.arabjc.2017.08.002. The settings on record: chemical scavenging and cellular antioxidant ability among flavonoids of S. baicalensis; cited from earlier work.
Data set [3] concerns APP/PS1 mice. Conditions: 80 mg/kg; cited from earlier work.
The subject of data set [4] is Tg2576 mice. Also noted: method as in PMID 23686791. The settings on record: 10 mg/kg; cited from earlier work.
The conditions of data set [5]: humans, 2.8 mg single dose; cited from earlier work.
The conditions of data set [6]: rat, oral S. baicalensis extract 30 mg/kg; cited from earlier work.
For data set [7], the system named is AlCl3-induced AD mouse model. The settings on record: cited from earlier work.
Data set [8] concerns the target T1, human recombinant TACE (Homo sapiens, UniProt P78536).
T1 construct: purchased R&D Systems (Minneapolis, MN, USA)
Description: TACE fluorometric assay. It is filed as biochemical. The procedure:
A human recombinant TACE (0.1 ppm in 25 mM Tris buffer), the substrate (APP peptide […] using EDANS/DABCYL), and baicalein were dissolved in an assay buffer and then combined and incubated for 60 min in the dark at 25 °C.

The target in data set [9] is T2, chymotrypsin (Bos taurus, UniProt P00766).
T2 construct: purchased Sigma-Aldrich (St. Louis, MO, USA)
Description: Chymotrypsin colorimetric assay. Format: biochemical. The method, then: (§1) The colorimetric assays of AChE, trypsin, chymotrypsin, and elastase were carried out using acetylthiocholine iodide, […], and N-succinyl-Ala-Ala-Ala-pNA as substrates, respectively. The hydrolysis of AChE was monitored according to the formation of yellow 5-thio-2-nitrobenzoate anions at 405 nm for 15 min, which were produced by the reaction of DTNB with thiocholine released from ACh. All reactions were performed in 96-well plates in triplicate and recorded using a microplate spectrophotometer.
(§2) For trypsin, chymotrypsin, and elastase assays, enzyme, Tris-HCl buffer (0.05 M, in 0.02 M CaCl2, pH 8.2), and baicalein were incubated for 10 min at 25 °C; then, substrate was added for 30 min at 37 °C. The absorbance was recorded at 410 nm. The inhibition ratio was obtained using the following equation:Inhibition (%) = {[1 − (A − B)]/control} × 100 where A was the absorbance of the control (enzyme, assay buffer, and substrate) after 60 min of incubation, and B was the absorbance of tested sample (assay buffer and sample solution) after 60 min of incubation.

Data set [10] has as its system trypsin. Description: Trypsin colorimetric assay. The settings on record: for Inhibitory activity against Trypsin: mean ± SD. Format: biochemical. The method, then:
as §1, §2

For data set [11] the following is noted: cited from earlier work.
Data set [12] concerns the target AChE (Electrophorus electricus, UniProt O42275). The settings on record: Dixon and Lineweaver–Burk plots.
Description: The colorimetric assays of AChE, trypsin, chymotrypsin, and elastase were carried out using acetylthiocholine iodide, N-benzoyl-L-Tyr-pNA, N-benzoyl-L-Arg-pNA, and N-succinyl-Ala-Ala-Ala-pNA as substrates, respectively. […] All reactions were performed in 96-well plates in triplicate and recorded using a microplate spectrophotometer.
The inhibitory constant (Ki) was obtained by interpretation of the Dixon plot, and maximum reaction velocity (Vmax) and Michaelis–Menten constant (Km) values were determined by a Lineweaver–Burk plot, using the initial velocities obtained over a different substrate concentration ranges.
Data set [13] addresses T3, elastase (Sus scrofa, UniProt P00772).
T3 construct: purchased Sigma-Aldrich (St. Louis, MO, USA)
Description: Elastase colorimetric assay. It is filed as biochemical. The method, then: as §1, §2

Structures are written as SMILES.

Here are results for three compounds from article PMC6893645, “Baicalein as a Potential Inhibitor against BACE1 and AChE: Mechanistic Comprehension through In Vitro and Computational Approaches” (Nutrients, 2019).

As usually defined, the IC50 is the concentration that inhibits the measured activity by half.

T1 sequence (P78536 215-824): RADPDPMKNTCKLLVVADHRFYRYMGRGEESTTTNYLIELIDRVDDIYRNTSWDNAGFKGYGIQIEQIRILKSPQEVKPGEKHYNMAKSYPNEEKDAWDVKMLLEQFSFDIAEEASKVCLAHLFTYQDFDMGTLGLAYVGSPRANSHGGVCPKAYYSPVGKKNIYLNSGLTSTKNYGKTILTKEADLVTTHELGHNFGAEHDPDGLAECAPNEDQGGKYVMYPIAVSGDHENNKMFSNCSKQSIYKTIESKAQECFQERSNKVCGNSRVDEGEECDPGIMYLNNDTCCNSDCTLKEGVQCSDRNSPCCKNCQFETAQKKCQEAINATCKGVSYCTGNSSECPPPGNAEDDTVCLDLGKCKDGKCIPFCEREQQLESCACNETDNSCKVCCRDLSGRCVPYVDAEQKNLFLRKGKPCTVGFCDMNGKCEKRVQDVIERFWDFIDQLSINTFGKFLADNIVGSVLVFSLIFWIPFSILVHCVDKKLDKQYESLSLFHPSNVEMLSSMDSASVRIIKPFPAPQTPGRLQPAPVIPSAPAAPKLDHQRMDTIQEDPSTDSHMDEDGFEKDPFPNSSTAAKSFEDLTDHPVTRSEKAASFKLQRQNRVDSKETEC
T3 sequence (P00772 27-266): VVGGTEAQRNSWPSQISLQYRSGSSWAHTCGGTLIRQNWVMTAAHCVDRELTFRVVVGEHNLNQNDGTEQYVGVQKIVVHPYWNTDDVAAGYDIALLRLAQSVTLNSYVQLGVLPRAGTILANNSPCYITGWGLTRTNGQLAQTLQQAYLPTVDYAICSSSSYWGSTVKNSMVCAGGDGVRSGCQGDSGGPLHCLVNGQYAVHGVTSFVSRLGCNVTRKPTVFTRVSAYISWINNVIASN
Sequence of AChE (O42275 24-633): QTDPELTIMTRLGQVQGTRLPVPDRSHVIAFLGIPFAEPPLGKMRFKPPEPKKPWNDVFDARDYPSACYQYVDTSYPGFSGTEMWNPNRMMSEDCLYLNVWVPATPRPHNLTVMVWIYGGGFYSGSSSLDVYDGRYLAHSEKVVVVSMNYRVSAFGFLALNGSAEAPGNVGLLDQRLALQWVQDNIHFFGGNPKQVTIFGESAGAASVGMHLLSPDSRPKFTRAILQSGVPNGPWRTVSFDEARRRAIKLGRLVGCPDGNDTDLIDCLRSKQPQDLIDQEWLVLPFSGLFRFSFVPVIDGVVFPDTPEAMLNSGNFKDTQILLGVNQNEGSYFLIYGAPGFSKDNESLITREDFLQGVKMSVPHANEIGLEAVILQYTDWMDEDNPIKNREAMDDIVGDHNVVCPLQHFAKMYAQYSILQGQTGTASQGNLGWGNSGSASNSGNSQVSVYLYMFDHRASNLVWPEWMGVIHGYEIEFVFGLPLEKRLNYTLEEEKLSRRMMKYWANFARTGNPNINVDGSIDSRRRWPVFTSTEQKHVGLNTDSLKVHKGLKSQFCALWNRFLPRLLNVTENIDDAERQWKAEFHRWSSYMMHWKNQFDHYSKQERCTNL

With `O=c1cc(-c2ccc(O)cc2)oc2cc(O)cc(O)c12` [Apigenin, 4′,5,7-trihydroxyflavone], the IC50 in [1] was > 100 µM.

Consider `O=c1cc(-c2ccccc2)oc2cc(O)cc(O)c12` [Chrysin, reference compound], for which the Antioxidant ability result in data set [2] was “much weaker antioxidant ability”.

On to `O=c1cc(-c2ccccc2)oc2cc(O)c(O)c(O)c12` [Baicalein, 5,6,7-trihydroxyflavone], for which, in data set [3], the “LOX and GSK3β activity” value was “inhibits LOX and GSK3β activity”. In addition, the Cognitive performance result in data set [4] was “significantly improves”. Also, the “Toxicity after single-dose administration” value in data set [5] was “no signs of toxicity”. For the same compound, the “Brain-to-plasma ratio compared with baicalin” value in [6] is listed as “twenty times higher”. Moreover, in [7], the Behavioral dysfunction entry is “improved”. In addition, the inhibition at 50 µM stood at 8.31 ± 0.89% in [8] (baicalein 50 μM, mean ± SD, read-out: Inhibitory activity against TACE); 8.42 ± 0.76% in [9] (baicalein 50 μM, mean ± SD, read-out: Inhibitory activity against Chymotrypsin); 10.3 ± 1.04% in [13] (baicalein 50 μM, mean ± SD, read-out: Inhibitory activity against Elastase). Also, the inhibition at 100 µM stood at 9.45 ± 0.71% in data set [8] (baicalein 100 μM, mean ± SD, read-out: Inhibitory activity against TACE); 4.48 ± 0.76% in data set [9] (baicalein 100 μM, mean ± SD, read-out: Inhibitory activity against Chymotrypsin); 9 ± 0.45% in [13] (baicalein 100 μM, mean ± SD, read-out: Inhibitory activity against Elastase). Further, the “Inhibitory activity against TACE (in words)” value in [8] (up to 100 µM) is on record as “no significant inhibitory activity”. The “Inhibitory activity against chymotrypsin (in words)” value in data set [9] (up to 100 µM) is reported as “no significant inhibitory activity”. The “Inhibitory activity against Trypsin” value in [10] (baicalein 50 μM) was 3.40 ± 0.76%; in data set [10] (baicalein 100 μM) it was −6.95 ± 0.87%. Further, the “Inhibitory activity against trypsin (in words)” value in data set [10] (up to 100 µM) is listed as “no significant inhibitory activity”. For the same compound, in [11] (30 mg/kg), the “Time to cross the BBB after administration” value was “about half an hour”. The BBB penetration result in data set [11] (rat, 30 and 60 mg/kg through the femoral vein) is “rapidly penetrated the BBB”. In data set [2], the Antioxidant ability entry was “most powerful antioxidant effect”. For the same compound, the “AChE Inhibition Type” value in data set [12] was “Competitive”. Also, in data set [13] (up to 100 µM), the “Inhibitory activity against elastase (in words)” value is given as “no significant inhibitory activity”.
